Measurements published in patent publication US20260001889A1, “COMPOSITIONS USEFUL FOR MODULATING SPLICING” (Skyhawk Therapeutics, Inc., priority 2022, published 2026).

Tests used:
ATXN3-HiBiT protein = assay: ATXN3 Total Protein Assay (Kelly-ATXN3-HiBiT luminescence); assay type: cell-based; details: Kelly-ATXN3-HiBiT cells, 48 h after addition of compound
How it was run: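 Kelly cells with homozygous C-terminal HiBiT knock-in on endogenous ATXN3, 2000 per well, dosed 24 h after seeding. HiBiT lytic luminescence read 48 h after compound; sister plate read with CellTiter-Glo for viability; fold change vs DMSO.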

[1] = tested on: ATXN3 transcripts containing exon 4; assay: ATXN3 Quantitative Splicing Assay (qPCR, E4E5 primers/probe); assay type: cell-based; details: Homo sapiens, SK-N-MC cells, compounds for 24 h
Description: Example 34: ATXN3 Quantitative Splicing Assay
Human neuroblastoma SK-N-MC cells were plated in 384-well plates at 20,000 cells/well. Twenty-four hours after plating, cells were treated with compounds for 24 h at appropriate concentrations ranging from 30 μM to 0.6 nM (0.300 DMSO). Treated cells were lysed in 15 μL of lysis buffer, and cDNA was synthesized using the Fast Advanced Cells-to-Ct kit. Two […] of each cDNA was used in qPCR reactions to confirm the exon 4 skipped transcripts of ATXN3. A second set of primers/probe E4E5 was used to detect the transcripts containing exon 4. The third set of primers/probe E8E9 was used to detect total gene level of ATXN3. The qPCR reactions were prepared in 384-well plates in 10 μL volume, using TaqMan™ Fast Advanced Master Mix with primers and probes shown in the table below. Reactions were run in a Quant Studio 6 qPCR instrument with default settings.
The primers and probes are listed below in Table 4.

total ATXN3 protein = assay: ATXN3 Total Protein Assay (Mesoscale Discovery, SK-N-MC cells); assay type: cell-based, Human; details: incubation for 48 hours, MSD assay
Description: Example 35: ATXN3 Total Protein Assay
Human neuroblastoma SK-N-MC cells were seeded at 10,000 cells/well in 384 well plates one day prior to compound treatment. The concentrations of compounds were tested at appropriate doses ranging from 30 μM to 0.6 nM. After incubation for 48 hours, the cells were lysed with 25 μL of lysis buffer containing protease inhibitors, and total ATXN3 protein levels were assessed by Mesoscale Discovery (MSD) assay developed with one pair of anti-ATXN3 antibodies. The capture and detect antibodies were raised in mouse and rabbit respectively. Anti-rabbit MSD-ST antibody was used for secondary antibody.
ATXN3 recombinant protein was used for standards. The readouts were captured with 35 μL of MSD read buffer and multi-array 384-well high binding plates.

SMILES	EC50 (ATXN3-HiBiT protein) [nM]	IC50 [1] [nM]	IC50 (total ATXN3 protein) [nM]
Cc1c(C[C@@H](N)CC2CC2)oc2c(NCc3cccs3)cc(Cl)nc12 [Compound 14, 2-[(S)-2-amino-3-cyclopropylpropyl]-5-chloro-3-methyl-7-thenylamino-1-oxa-4-azaindene]	0.01 to 100	101 to 500	101 to 500
C[C@H](N)Cc1oc2c(NCc3cccs3)cc(Cl)nc2c1Cl [Compound 16, 2-[(S)-2-aminopropyl]-3,5-dichloro-7-thenylamino-1-oxa-4-azaindene]	0.01 to 100	0.01 to 100	0.01 to 100
C[C@H](N)Cc1oc2c(NCc3cccs3)cc(Cl)nc2c1Br [Compound 17, 2-[(S)-2-aminopropyl]-3-bromo-5-chloro-7-thenylamino-1-oxa-4-azaindene]	0.01 to 100	0.01 to 100	0.01 to 100
C[C@H](N)Cc1oc2c(NCc3cccs3)cc(Cl)nc2c1C#N [Compound 18, 2-[(S)-2-aminopropyl]-5-chloro-7-thenylamino-1-oxa-4-aza-3-indenecarbonitrile]	5000 to 10000	10000 to 40000	5000 to 10000
N[C@@H](CO)Cc1oc2c(NCc3cccs3)cc(Cl)nc2c1Br [Compound 20, (R)-2-amino-3-(3-bromo-5-chloro-7-thenylamino-1-oxa-4-aza-2-indenyl)-1-propanol]	0.01 to 100	0.01 to 100	0.01 to 100
N[C@@H](CO)Cc1oc2c(NCc3cccs3)cc(Cl)nc2c1Cl [Compound 21, (R)-2-amino-3-(3,5-dichloro-7-thenylamino-1-oxa-4-aza-2-indenyl)-1-propanol]	0.01 to 100	0.01 to 100	0.01 to 100
N[C@@H](CO)Cc1oc2c(NCc3ccco3)cc(Cl)nc2c1Br [Compound 22, (R)-2-amino-3-[3-bromo-5-chloro-7-(furfurylamino)-1-oxa-4-aza-2-indenyl]-1-propanol]	0.01 to 100	0.01 to 100	0.01 to 100
N[C@@H](CO)Cc1oc2c(NCc3ccco3)cc(Cl)nc2c1Cl [Compound 23, (R)-2-amino-3-[3,5-dichloro-7-(furfurylamino)-1-oxa-4-aza-2-indenyl]-1-propanol]	0.01 to 100	0.01 to 100	0.01 to 100
N[C@H](Cc1oc2c(NCc3cccs3)cc(Cl)nc2c1Cl)CC(F)(F)F [Compound 25, 2-[(R)-2-amino-4,4,4-trifluorobutyl]-3,5-dichloro-7-thenylamino-1-oxa-4-azaindene]	101 to 500	501 to 5000	501 to 5000
N[C@H](Cc1oc2c(NCc3ccco3)cc(Cl)nc2c1Br)CC(F)(F)F [Compound 26, 2-[(R)-2-amino-4,4,4-trifluorobutyl]-3-bromo-5-chloro-7-(furfurylamino)-1-oxa-4-azaindene]	501 to 5000	101 to 500	101 to 500
N[C@H](Cc1oc2c(NCc3ccco3)cc(Cl)nc2c1Cl)CC(F)(F)F [Compound 27, 2-[(R)-2-amino-4,4,4-trifluorobutyl]-3,5-dichloro-7-(furfurylamino)-1-oxa-4-azaindene]	501 to 5000	501 to 5000	501 to 5000
Cc1c(C[C@@H](N)CCF)oc2c(NCc3cccs3)cc(Cl)nc12 [Compound 31, 2-[(2R)-2-amino-4-fluorobutyl]-5-chloro-3-methyl-N-(thiophen-2-ylmethyl)furo[3,2-b]pyridin-7-amine]	101 to 500	101 to 500	101 to 500
C[C@H](N)Cc1oc2c(NCc3ccco3)cc(Cl)nc2c1Br [Compound 34, 2-[(S)-2-aminopropyl]-3-bromo-5-chloro-7-(furfurylamino)-1-oxa-4-azaindene]	0.01 to 100	0.01 to 100	0.01 to 100
C[C@H](N)Cc1oc2c(NCc3cccs3)cc(C#N)nc2c1Br [Compound 35, 2-[(S)-2-aminopropyl]-3-bromo-7-thenylamino-1-oxa-4-aza-5-indenecarbonitrile]	101 to 500	101 to 500	101 to 500
C[C@H](N)Cc1oc2c(NCc3ccco3)cc(C#N)nc2c1Br [Compound 36, 2-[(S)-2-aminopropyl]-3-bromo-7-(furfurylamino)-1-oxa-4-aza-5-indenecarbonitrile]	501 to 5000	501 to 5000	501 to 5000
COC[C@H](N)Cc1oc2c(NCc3cccs3)cc(Cl)nc2c1Br [Compound 37, 2-[(R)-2-amino-3-methoxypropyl]-3-bromo-5-chloro-7-thenylamino-1-oxa-4-azaindene]	0.01 to 100	0.01 to 100	0.01 to 100
C#Cc1cc(NCc2cccs2)c2oc(C[C@H](C)N)c(C)c2n1 [Compound 40, 2-[(S)-2-aminopropyl]-5-ethynyl-3-methyl-7-thenylamino-1-oxa-4-azaindene]	501 to 5000	501 to 5000	501 to 5000
Cc1c(C[C@@H](N)[C@H](C)F)oc2c(NCc3cccs3)cc(Cl)nc12 [Compound 41, 2-[(2R,3S)-2-amino-3-fluorobutyl]-5-chloro-3-methyl-7-thenylamino-1-oxa-4-azaindene]	0.01 to 100	0.01 to 100	0.01 to 100
C[C@H](F)[C@H](N)Cc1oc2c(NCc3cccs3)cc(Cl)nc2c1Br [Compound 43, 2-[(2R,3S)-2-amino-3-fluorobutyl]-3-bromo-5-chloro-N-(thiophen-2-ylmethyl)furo[3,2-b]pyridin-7-amine]	0.01 to 100	0.01 to 100	0.01 to 100
C[C@@H](F)[C@H](N)Cc1oc2c(NCc3cccs3)cc(Cl)nc2c1Br [Compound 44, 2-[(2R,3R)-2-amino-3-fluorobutyl]-3-bromo-5-chloro-7-thenylamino-1-oxa-4-azaindene]	101 to 500	101 to 500	101 to 500
C[C@H](N)Cc1oc2c(NCc3nccs3)cc(Cl)nc2c1Br [Compound 45, 2-[(S)-2-aminopropyl]-3-bromo-5-chloro-7-{[(1,3-thiazol-2-yl)methyl]amino}-1-oxa-4-azaindene]	0.01 to 100	101 to 500	101 to 500
COC[C@H](N)Cc1oc2c(NCc3ccncc3)cc(Cl)nc2c1Br [Compound 48, (R)-2-(2-amino-3-methoxypropyl)-3-bromo-5-chloro-N-(pyridin-4-ylmethyl)furo[3,2-b]pyridin-7-amine]	101 to 500	101 to 500	101 to 500
COC[C@H](N)Cc1oc2c(NCc3cccs3)cc(Cl)nc2c1Cl [Compound 50, 2-[(R)-2-amino-3-methoxypropyl]-3,5-dichloro-7-thenylamino-1-oxa-4-azaindene]	0.01 to 100	0.01 to 100	0.01 to 100
COC[C@H](N)Cc1oc2c(NCc3ccccc3)cc(Cl)nc2c1Cl [Compound 51, 2-[(R)-2-amino-3-methoxypropyl]-7-benzylamino-3,5-dichloro-1-oxa-4-azaindene]	101 to 500	101 to 500	101 to 500
COC[C@H](N)Cc1oc2c(NCc3ccco3)cc(Cl)nc2c1Cl [Compound 52, 2-[(R)-2-amino-3-methoxypropyl]-3,5-dichloro-7-(furfurylamino)-1-oxa-4-azaindene]	0.01 to 100	0.01 to 100	101 to 500
COC[C@H](N)Cc1oc2c(NCc3nccs3)cc(Cl)nc2c1Cl [Compound 53, 2-[(R)-2-amino-3-methoxypropyl]-3,5-dichloro-7-{[(1,3-thiazol-2-yl)methyl]amino}-1-oxa-4-azaindene]	101 to 500	101 to 500	101 to 500
C[C@H](N)Cc1oc2c(NCc3nccs3)cc(Cl)nc2c1Cl [Compound 57, 2-[(S)-2-aminopropyl]-3,5-dichloro-7-{[(1,3-thiazol-2-yl)methyl]amino}-1-oxa-4-azaindene]	101 to 500	101 to 500	101 to 500
N[C@@H](CF)Cc1oc2c(NCc3cccs3)cc(Cl)nc2c1Br [Compound 58, 2-[(R)-2-amino-3-fluoropropyl]-3-bromo-5-chloro-7-thenylamino-1-oxa-4-azaindene]	0.01 to 100	0.01 to 100	0.01 to 100
Cc1cc(NCc2cccs2)c2oc(C[C@@H](N)CO)c(Br)c2n1 [Compound 59, (R)-2-amino-3-(3-bromo-5-methyl-7-thenylamino-1-oxa-4-aza-2-indenyl)-1-propanol]	0.01 to 100	101 to 500	101 to 500
N#Cc1cc(NCc2cccs2)c2oc(C[C@@H](N)CO)c(Br)c2n1 [Compound 60, 2-[(R)-2-amino-3-hydroxypropyl]-3-bromo-7-thenylamino-1-oxa-4-aza-5-indenecarbonitrile]	101 to 500	101 to 500	101 to 500
